# Test results published in patent publication US11793824B2, “Administration of nicotinamide mononucleotide in the treatment of disease” (Washington University, priority 2013, dated 2023).
# Entries after “also recorded” stand apart in the source; their conditions may differ.
# Assays:
# [1] = Oxygen consumption, energy expenditure, respiratory quotient (Oxymax Lab Animal Monitoring System); format: in vivo, mouse; settings: 100 mg/kg and 300 mg/kg groups, 12 month time point
# Experimental: (§1) A 12 month-long NMN administration study using wild-type mice under a regular chow-fed condition was conducted. NMN was administered through drinking water, and two doses of NMN, 100 and 300 mg/kg body weight/day, were tested. […] To assess beneficial and possible adverse effects of NMN, a variety of physiological parameters were periodically monitored, including body weight, body temperature, food and water intake, fed and fasted blood glucose levels, fed and fasted plasma lipid panels, and glucose and insulin tolerance, in NMN-administered and control mice. Blood chemistry, blood cell counts, urine strip test, and other physiological tests including physical activity test were also checked.
# In this long-term NMN administration study (See Methods; Administration of NMN through Drinking Water and Determination of NMN Stability and Toxicity), the inventors measured oxygen consumption, energy expenditure, and respiratory quotient for control, mice administered 100 mg/kg NMN per day and mice administered 300 mg/kg NMN per day at the 12 month time point by using the Oxymax Lab Animal Monitoring System (Columbus Instruments, Columbus, OH).
# [2] = 12 month-long NMN administration study: adverse effects and toxicity; format: in vivo
# Experimental: as §1
# [3] = Age-associated increases in blood lipid levels; format: in vivo, mouse
# Experimental: as §1
# Blood levels of cholesterol, triglycerides, and free fatty acids are shown over 12 months in the control and the 100 and 300 mg/kg NMN-administered cohorts in FIG. 7. The results were analyzed with two-way RANOVA and one-way RANOVA. All values are presented as mean±SEM (n=25 for each group).
# Without being limited by theory, since NMN has an effect of suppressing age-associated body weight increase, it was hypothesized that NMN's effect on blood lipid levels could be due to the reduction in body weight. To address this possibility, lipid levels were compared among individual mice whose average body weights were matched through control and experimental cohorts. Body weight-matched blood levels of cholesterol, triglycerides, and free fatty acids are shown over 12 months in the control and the 100 and 300 mg/kg NMN-administered cohorts in FIG. 8. The results were analyzed with two-way RANOVA and one-way RANOVA. All values are presented as mean±SEM (n=10-15 for each group). […] All values are presented as mean±SEM (n=10-15 for each group). These findings indicate that NMN has the effect of suppressing the age-associated increase in blood FFA levels, independent of the reduction in body weight. Without being limited by theory, the effect of NMN on blood cholesterol levels may be secondary to the effect of suppressing age-associated body weight increase.
# [4] = test system: NSPCs; assay: NSPC pool in the dentate gyrus after long-term NMN in drinking water; format: in vivo, mouse
# Experimental: All tissue sections were and cells incubated in blocking/permeabilization solution containing 10% normal goat serum, 1% BSA, and 0.3% Triton-X in PBS for 45 to 60 min prior to 24 or 48 h of incubation with primary antibodies in 5% normal goat serum and 0.1% Triton-X in PBS at 4° C. at the concentrations listed below. […], Alexa488, or Cy3 conjugated-secondary antibodies diluted in 2% normal goat serum, 1% BSA, and 0.1% Triton-X in PBS were added for 2 h at room temperature. Nuclei were stained with 4,6-diamidino-2-phenylindole (Sigma) for 10 min at room temperature.
# Cells were harvested by fixation with 4% paraformaldehyde in PBS (15 min). Mice were anesthetized by i.p. injection of ketamine and xylazine, and perfused transcardially through left ventricle with cold 0.1 M phosphate buffer at pH 7.4 followed by a phosphate-buffered solution of 4% paraformaldehyde (PFA). Brains were postfixed with 4% PFA overnight and placed into 15% sucrose followed by 30% sucrose, frozen, and stored at −80° C. until use. Coronal sections (30 μm) were made by cryostat in a 1 in 8 series and stored at −30° C. in cryoprotectant until use. To remove any endogenous peroxidase activity, all sections were incubated with 3% H2O2 for 10 min. […]
# For tissue sections, high-magnification (20×, 0.8DICII or 40× oil 1.3DICII) microscopic imaging was performed using a Zeiss Axioimage.Z1. […] Quantification was performed blinded to genotype on 3-8 tissue sections per animal. Cell densities were estimated by the number of immunoreactive cells divided by the area of the structure, measured with ImageJ. […] Quantification was performed blinded to genotype on 2 to 3 fields of view per sample and treatment, from 3 to 9 independent samples.
# The inventors hypothesized that systemic administration of NMN may be able to correct age-associated defects in NSPC functionality. […] Quantification of Ki67+ (H) and Dcx+ (I) cells in the DG per unit area of the DG (n=5). […]
# [5] = 100 and 300 mg/kg groups vs control
# [6] = NMN in drinking water from 6 to 18 months of age
structure (smiles),measurement,setting,value
"NC(=O)c1ccc[n+]([C@@H]2O[C@H](COP(=O)([O-])O)[C@@H](O)[C@H]2O)c1 [NMN, nicotinamide mononucleotide]",oxygen consumption,[1],significantly increased
same,respiratory quotient,[1],significantly decreased
same,energy expenditure,[1]; through 24 hours,significant increases
same,adverse effects or signs of toxicity,"[2]; 100 mg/kg or 300 mg/kg body weight/day in drinking water, 12 months","no adverse effects, such as malnutrition, or signs of toxicity were observed; also recorded: without showing any serious side effects"
same,water intake,"[2]; NMN in drinking water, through the experimental period",did not change significantly
same,adverse effect on glucose metabolism,[2]; long-term NMN administration,does not show any adverse effect on glucose metabolism
same,increase of FFAs over time after body weight match,[3]; 100 mg/kg group,showed significant increases over time
same,increase of blood FFAs over time,"[3]; 100 mg/kg group, first 6 months",statistically significant increases
same,increase of FFAs over time after body weight match,[3]; 300 mg/kg group,did not show any statistically significant increases over time
same,increase of blood FFAs over time,[3]; 300 mg/kg group,did not show any statistically significant increase over time
same,age-associated increases in blood levels of FFAs,"[3]; 300 mg/kg, particularly at the 6-month time point",suppressed age-associated increases in blood levels of FFAs
same,FFA levels after matching body weight,[3]; [5],still lower
same,blood cholesterol levels after matching body weight,[3]; [5],very similar through control and experimental groups
same,age-associated increases in blood cholesterol and free fatty acids,"[3]; 100 and 300 mg/kg groups, 12 months",tended to be suppressed
same,Type 1 (radial Nestin+) NSPC population with age,[4]; 300 mg/kg body weight in drinking water from 6 to 18 months of age,improved maintenance; also recorded: able to maintain the NSPC pool
same,population of newborn neurons (Dcx+) in the DG,[4]; [6],trended to increase
same,population of proliferating cells (Ki67+) in the DG,[4]; [6],remained similar to controls
